Experimental data taken from publication PMC1851987, “Identification of the Endogenous Key Substrates of the Human Organic Cation Transporter OCT2 and Their Implication in Function of Dopaminergic Neurons” (PLoS ONE, 2007).

How the values were obtained:
[1] = molecular target: T1, organic cation transporter OCT2 (wild-type 400R) (Homo sapiens, UniProt O15244, S270A); experiment: Specific uptake into OCT2 (wild-type) transfected HEK-293 cells vs empty vector, LC-MS-MS; conditions: 5 min of incubation with 10 µmol/l
T1 sequence (O15244 1-555 S270A): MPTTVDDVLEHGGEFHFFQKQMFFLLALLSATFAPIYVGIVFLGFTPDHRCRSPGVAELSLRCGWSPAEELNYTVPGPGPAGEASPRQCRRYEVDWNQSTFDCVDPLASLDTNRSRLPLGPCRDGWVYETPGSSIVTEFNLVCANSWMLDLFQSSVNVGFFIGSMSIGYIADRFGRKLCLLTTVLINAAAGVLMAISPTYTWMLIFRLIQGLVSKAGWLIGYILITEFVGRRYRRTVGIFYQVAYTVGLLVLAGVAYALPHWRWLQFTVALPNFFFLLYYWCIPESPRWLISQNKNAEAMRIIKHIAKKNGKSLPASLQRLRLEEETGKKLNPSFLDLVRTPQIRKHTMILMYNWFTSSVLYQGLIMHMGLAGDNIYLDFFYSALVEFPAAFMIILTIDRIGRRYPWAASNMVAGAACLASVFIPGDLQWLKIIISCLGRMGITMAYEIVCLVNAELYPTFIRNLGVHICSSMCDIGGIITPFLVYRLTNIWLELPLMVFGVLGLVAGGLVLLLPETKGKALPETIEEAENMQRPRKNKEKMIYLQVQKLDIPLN

SH-SY5Y cells = experiment: Intracellular metabolite N-methyl-salsolinol after salsolinol incubation, SH-SY5Y cells; format: in vitro ADME, human; conditions: mean±s.e.m., n = 3
Text: (§1) Beyond its physiological neuromodulatory function, there is considerable interest in the pathophysiologic role of salsolinol. […] It has been hypothesized that especially N-methyl-salsolinol is etiologically involved in apoptotic nigral cell death in PD by promoting calcium-triggered disruption of mitochondrial permeability transition.[14]

HTZ-146 cells = experiment: Intracellular metabolite N-methyl-salsolinol after salsolinol incubation, HTZ-146 cells; format: in vitro ADME, human; conditions: mean±s.e.m., n = 3
Text: as §1

[2] = tested on: OCT2-transfected HEK-293 cells; experiment: Intracellular metabolite N-methyl-salsolinol after salsolinol incubation, OCT2-transfected HEK-293 cells; format: in vitro ADME, human; conditions: mean±s.e.m., n = 3
Protocol: Chromatographic separations were performed on Hypercarb (5 µm, 50×2.1 mm; Thermo Electron), Aquasil C18 (3 µm, 100×4.6 mm; Thermo Electron), or Hilic columns (5 µm, 100×3.0 mm; Waters Atlantis) by isocratic or gradient elution using 0.1% aqueous formic acid (A) and acetonitrile or methanol (B) as solvent system. For quantification, SRM transitions of a precursor ion [M+H]^+ into a specific fragment ion (peak area ratios relative to IS) were recorded in positive ESI mode at 1.0–1.5 mTorr collision pressure and 10–40 eV collision energy. External calibration curves were obtained from serial dilutions of the analyte in 4 mmol/l HClO4 by linear or logistic regression. Detection limit was at least 0.001 nmol/mg protein.

[3] = molecular target: T1, organic cation transporter OCT2 (wild-type 400R); conditions: cited from earlier work
[4] = substrate: O=C1NC(Cc2c[nH]cn2)C(=O)N2CCCC12; experiment: Specific uptake into OCT1-transfected HEK-293 cells; format: cell-based, human; conditions: other: specific uptake, 1 min of loading, mean (s.e.m.); pH 7.4; 37.0 °C
[5] = substrate: O=C1NC(Cc2c[nH]cn2)C(=O)N2CCCC12; experiment: Specific uptake into EMT-transfected HEK-293 cells; format: cell-based, human; conditions: other: specific uptake, 1 min of loading, mean (s.e.m.); pH 7.4; 37.0 °C
[6] = 48 h incubation with 10 µmol/l salsolinol
[7] = 48 h incubation with 100 µmol/l salsolinol

Molecule: CC1c2cc(O)c(O)cc2CCN1C (stereo not shown) [N-methyl-salsolinol]
- uptake rate relative to salsolinol [1]: about two-thirds
- intracellular concentration of the metabolite N-methyl-salsolinol (SH-SY5Y cells; [6]): 0.18±0.01 nmol/mg protein
- intracellular concentration of the metabolite N-methyl-salsolinol (SH-SY5Y cells; [7]): 1.28±0.11 nmol/mg protein
- intracellular concentration of the metabolite N-methyl-salsolinol (HTZ-146 cells; [6]): 0.17±0.01 nmol/mg protein
- intracellular concentration of the metabolite N-methyl-salsolinol (HTZ-146 cells; [7]): 1.16±0.06 nmol/mg protein
- intracellular concentration of the metabolite N-methyl-salsolinol [2, 6]: 0.89±0.06 nmol/mg protein
- intracellular concentration of the metabolite N-methyl-salsolinol [2, 7]: 7.56±0.41 nmol/mg protein

Molecule: NCCc1ccc(O)c(O)c1 [dopamine]
- OCT2-mediated transport [3]: no significant OCT2-mediated transport

B1: OCT1 (Homo sapiens) (protein)
chain: MPTVDDILEQVGESGWFQKQAFLILCLLSAAFAPICVGIVFLGFTPDHHCQSPGVAELSQRCGWSPAEELNYTVPGLGPAGEAFLGQCRRYEVDWNQSALSCVDPLASLATNRSHLPLGPCQDGWVYDTPGSSIVTEFNLVCADSWKLDLFQSCLNAGFLFGSLGVGYFADRFGRKLCLLGTVLVNAVSGVLMAFSPNYMSMLLFRLLQGLVSKGNWMAGYTLITEFVGSGSRRTVAIMYQMAFTVGLVALTGLAYALPHWRWLQLAVSLPTFLFLLYYWCVPESPRWLLSQKRNTEAIKIMDHIAQKNGKLPPADLKMLSLEEDVTEKLSPSFADLFRTPRLRKRTFILMYLWFTDSVLYQGLILHMGATSGNLYLDFLYSALVEIPGAFIALITIDRVGRIYPMAMSNLLAGAACLVMIFISPDLHWLNIIIMCVGRMGITIAIQMICLVNAELYPTFVRNLGVMVCSSLCDIGGIITPFIVFRLREVWQALPLILFAVLGLLAAGVTLLLPETKGVALPETMKDAENLGRKAKPKENTIYLKVQTSEPSGT
notes: The cDNAs encoding the organic cation transporters; expressed in transfected cells; host or cells: HEK-293, stably transfected, pcDNA3
- Km [4]: 655 (191) μmol/l

B2: EMT (Homo sapiens) (protein)
chain: MPSFDEALQRVGEFGRFQRRVFLLLCLTGVTFAFLFVGVVFLGTQPDHYWCRGPSAAALAERCGWSPEEEWNRTAPASRGPEPPERRGRCQRYLLEAANDSASATSALSCADPLAAFPNRSAPLVPCRGGWRYAQAHSTIVSEFDLVCVNAWMLDLTQAILNLGFLTGAFTLGYAADRYGRIVIYLLSCLGVGVTGVVVAFAPNFPVFVIFRFLQGVFGKGTWMTCYVIVTEIVGSKQRRIVGIVIQMFFTLGIIILPGIAYFIPNWQGIQLAITLPSFLFLLYYWVVPESPRWLITRKKGDKALQILRRIAKCNGKYLSSNYSEITVTDEEVSNPSFLDLVRTPQMRKCTLILMFAWFTSAVVYQGLVMRLGIIGGNLYIDFFISGVVELPGALLILLTIERLGRRLPFAASNIVAGVACLVTAFLPEGIAWLRTTVATLGRLGITMAFEIVYLVNSELYPTTLRNFGVSLCSGLCDFGGIIAPFLLFRLAAVWLELPLIIFGILASICGGLVMLLPETKGIALPETVDDVEKLGSPHSCKCGRNKKTPVSRSHL
notes: as for B1
- Km [5]: 126 (38) μmol/l
